Data: US20140323501A1, “AMINO-PROPYLENE-GLYCOL DERIVATIVES, PREPARATION METHOD AND PHARMACEUTICAL COMPOSITION AND USE THEREOF” (INSTITUTE OF MATERIA MEDICA, CHINESE ACADEMY OF MEDICAL …, priority 2011, published 2014)

How the values were obtained:
[1] = tested on: SD rat peripheral blood lymphocyte counts; experiment: Effect of S1P1 receptor agonists on rat vein (peripheral) blood lymphocyte counts; format: in vivo; conditions: for LYM 0 h: before administration; for Δ %: largest decrease of lymphocyte count vs 0 h
Protocol: 10 mg of drugs were measured and placed in a mortar. After 4 mL of 5‰ CMC-Na were added, homogenous suspension was prepared in the mortar (one drop of twain-80 was added to help dissolving). Dosage: 10 mg/Kg, dose volume: 0.4 mL/100 g, intragastric administration.
Every medicated group was assigned three rats.
After the experimental animals stable in the clean environment for 24 h, 10 μL of blood was withdrawn via tail vein and diluted into 2 mL of diluents quickly. […] Then the prepared drugs were administered intragastrically to the animals. […] The animals were killed after 24 h.

SD rat heart rate = experiment: Effect of S1P1 receptor agonists on rat heart rate; format: in vivo; conditions: for HR delta %: (lowest heart rate postdose − pre-administration)/pre-administration; for heart rate pre-administration: before administration
Protocol: 2.1 Experimental animals: SD rats, purchased from Weitonglihua. Weight: 200-240 g, male. Every test group was assigned three rats. The normal rats were set as control group and determined as the medicated group parallelly for three times. The positive drug FTY720 was repeated three times.
2.2 Apparatus: Intelligent non-invasive blood pressure measurement meter (Softron, Japan).
(1) Preparation: The drug was dissolved to reach a concentration of 2.5 mg/mL.
(1) Determination of rat heart rate before administration. Repeat for three times.
(2) Administration: intragastric administration after SD rats weighed.
(3) Determination of rat heart rate at the time 0.5 h, 1 h, 3 h, 6 h, 8 h and 24 h after administration. Repeat for three times
Every drug was tested with three SD rats parallelly. […] Delta % of heart rate=(the lowest heart rate postdose−the heart rate pre-administration)/the heart rate pre-administration, reflects the influence of drugs on rat heart rate.

[2] = Table 6, intragastric, listed as FTY720-1
[3] = Table 6, intragastric, listed as FTY720-2

CCCCCCCCc1ccc(CCC(N)(CO)CO)cc1 [FTY720, reference compound]
LYM 0 h ([1]; Table 1, 10 mg/Kg intragastric): 4.20 ± 0.57 × 10^9/L | LYM 1 h ([1]; Table 1, 10 mg/Kg intragastric, 1 h after administration): 4.75 ± 2.76 × 10^9/L | LYM 2 h ([1]; Table 1, 10 mg/Kg intragastric, 2 h after administration): 2.45 ± 0.07 × 10^9/L | LYM 4 h ([1]; Table 1, 10 mg/Kg intragastric, 4 h after administration): 2.75 ± 0.78 × 10^9/L | LYM 8 h ([1]; Table 1, 10 mg/Kg intragastric, 8 h after administration): 1.80 ± 0.14 × 10^9/L | LYM 12 h ([1]; Table 1, 10 mg/Kg intragastric, 12 h after administration): 1.00 ± 0.00 × 10^9/L | LYM 24 h ([1]; Table 1, 10 mg/Kg intragastric, 24 h after administration): 2.60 ± 0.42 × 10^9/L | compared with 0 h (%) 1 h ([1]; Table 1, lymphocyte count change vs 0 h, 10 mg/Kg intragastric, 1 h): −13.10% | compared with 0 h (%) 2 h ([1]; Table 1, lymphocyte count change vs 0 h, 10 mg/Kg intragastric, 2 h): 41.67% | compared with 0 h (%) 4 h ([1]; Table 1, lymphocyte count change vs 0 h, 10 mg/Kg intragastric, 4 h): 34.52% | compared with 0 h (%) 8 h ([1]; Table 1, lymphocyte count change vs 0 h, 10 mg/Kg intragastric, 8 h): 57.14% | compared with 0 h (%) 12 h ([1]; Table 1, lymphocyte count change vs 0 h, 10 mg/Kg intragastric, 12 h): 76.19% | compared with 0 h (%) 24 h ([1]; Table 1, lymphocyte count change vs 0 h, 10 mg/Kg intragastric, 24 h): 38.10% | LYM 0 h ([1]; Table 3, 10 mg/Kg intragastric): 4.97 ± 1.06 ×10^9/L | LYM 1 h ([1]; Table 3, 10 mg/Kg intragastric, 1 h): 3.18 ± 0.52 ×10^9/L | LYM 2 h ([1]; Table 3, 10 mg/Kg intragastric, 2 h): 3.15 ± 0.71 ×10^9/L | LYM 4 h ([1]; Table 3, 10 mg/Kg intragastric, 4 h): 3.44 ± 1.30 ×10^9/L | LYM 6 h ([1]; Table 3, 10 mg/Kg intragastric, 6 h): 2.78 ± 0.84 ×10^9/L | LYM 8 h ([1]; Table 3, 10 mg/Kg intragastric, 8 h): 2.32 ± 0.90 ×10^9/L | LYM 12 h ([1]; Table 3, 10 mg/Kg intragastric, 12 h): 2.33 ± 0.75 ×10^9/L | LYM 23 h ([1]; Table 3, 10 mg/Kg intragastric, 23 h): 1.78 ± 0.29 ×10^9/L | Δ % ([1]; Table 3, 10 mg/Kg intragastric): 64.09% | LYM 0 h ([1]; Table 5, 10 mg/Kg intragastric): 3.80 ± 0.14 × 10^9/L | LYM 1 h ([1]; Table 5, 10 mg/Kg intragastric, 1 h): 2.30 ± 0.85 × 10^9/L | LYM 4 h ([1]; Table 5, 10 mg/Kg intragastric, 4 h): 1.20 ± 0.36 × 10^9/L | LYM 8 h ([1]; Table 5, 10 mg/Kg intragastric, 8 h): 1.07 ± 0.50 × 10^9/L | LYM 12 h ([1]; Table 5, 10 mg/Kg intragastric, 12 h): 1.27 ± 0.23 × 10^9/L | LYM 24 h ([1]; Table 5, 10 mg/Kg intragastric, 24 h): 1.60 ± 0.57 × 10^9/L | Δ % ([1]; Table 5): 71.93% | LYM 0 h ([1]; Table 7, 10 mg/Kg intragastric): 3.80 ± 0.14 × 10^9/L | LYM 1 h ([1]; Table 7, 10 mg/Kg intragastric, 1 h): 2.30 ± 0.85 × 10^9/L | LYM 4 h ([1]; Table 7, 10 mg/Kg intragastric, 4 h): 1.20 ± 0.36 × 10^9/L | LYM 8 h ([1]; Table 7, 10 mg/Kg intragastric, 8 h): 1.07 ± 0.50 × 10^9/L | LYM 12 h ([1]; Table 7, 10 mg/Kg intragastric, 12 h): 1.27 ± 0.23 × 10^9/L | LYM 24 h ([1]; Table 7, 10 mg/Kg intragastric, 24 h): 1.60 ± 0.57 × 10^9/L | Δ % ([1]; Table 7): 71.93% | LYM 0 h ([1]; Table 8, 10 mg/Kg intragastric): 4.20 ± 0.57 × 10^9/L | LYM 1 h ([1]; Table 8, 10 mg/Kg intragastric, 1 h): 4.75 ± 2.76 × 10^9/L | LYM 4 h ([1]; Table 8, 10 mg/Kg intragastric, 4 h): 2.75 ± 0.78 × 10^9/L | LYM 8 h ([1]; Table 8, 10 mg/Kg intragastric, 8 h): 1.80 ± 0.14 × 10^9/L | LYM 12 h ([1]; Table 8, 10 mg/Kg intragastric, 12 h): 1.00 ± 0.00 × 10^9/L | LYM 24 h ([1]; Table 8, 10 mg/Kg intragastric, 24 h): 2.60 ± 0.42 × 10^9/L | Δ % ([1]; Table 8): 76.19% | HR delta % (SD rat heart rate; Table 2, listed as FTY720-1): 19.60% | HR delta % (SD rat heart rate; Table 2, listed as FTY720-2): 17.80% | HR delta % (SD rat heart rate; Table 2, listed as FTY720-3): 14.00% | HR delta % (SD rat heart rate; Table 2, listed as average of FTY720): 16.6% | heart rate 0.5 h (SD rat heart rate; Table 2, intragastric, 0.5 h after administration, listed as FTY720-1): 392.33 | heart rate 0.5 h (SD rat heart rate; Table 2, intragastric, 0.5 h after administration, listed as FTY720-2): 361.28 | heart rate 0.5 h (SD rat heart rate; Table 2, intragastric, 0.5 h after administration, listed as FTY720-3): 379.67 | heart rate 0.5 h (SD rat heart rate; Table 2, intragastric, 0.5 h after administration, listed as average of FTY720): 377.76 | heart rate 1 h (SD rat heart rate; Table 2, intragastric, 1 h after administration, listed as FTY720-1): 361.00 | heart rate 1 h (SD rat heart rate; Table 2, intragastric, 1 h after administration, listed as FTY720-2): 331.71 | heart rate 1 h (SD rat heart rate; Table 2, intragastric, 1 h after administration, listed as FTY720-3): 370.62 | heart rate 1 h (SD rat heart rate; Table 2, intragastric, 1 h after administration, listed as average of FTY720): 354.44 | heart rate 3 h (SD rat heart rate; Table 2, intragastric, 3 h after administration, listed as FTY720-1): 318.50 | heart rate 3 h (SD rat heart rate; Table 2, intragastric, 3 h after administration, listed as FTY720-2): 329.33 | heart rate 3 h (SD rat heart rate; Table 2, intragastric, 3 h after administration, listed as FTY720-3): 355.83 | heart rate 3 h (SD rat heart rate; Table 2, intragastric, 3 h after administration, listed as average of FTY720): 334.55 | heart rate 6 h (SD rat heart rate; Table 2, intragastric, 6 h after administration, listed as FTY720-1): 325.78 | heart rate 6 h (SD rat heart rate; Table 2, intragastric, 6 h after administration, listed as FTY720-2): 327.82 | heart rate 6 h (SD rat heart rate; Table 2, intragastric, 6 h after administration, listed as FTY720-3): 342.00 | heart rate 6 h (SD rat heart rate; Table 2, intragastric, 6 h after administration, listed as average of FTY720): 331.86 | heart rate 8 h (SD rat heart rate; Table 2, intragastric, 8 h after administration, listed as FTY720-1): 341.00 | heart rate 8 h (SD rat heart rate; Table 2, intragastric, 8 h after administration, listed as FTY720-2): 338.78 | heart rate 8 h (SD rat heart rate; Table 2, intragastric, 8 h after administration, listed as FTY720-3): 342.50 | heart rate 8 h (SD rat heart rate; Table 2, intragastric, 8 h after administration, listed as average of FTY720): 340.76 | heart rate 24 h (SD rat heart rate; Table 2, intragastric, 24 h after administration, listed as FTY720-1): 329.67 | heart rate 24 h (SD rat heart rate; Table 2, intragastric, 24 h after administration, listed as FTY720-2): 365.07 | heart rate 24 h (SD rat heart rate; Table 2, intragastric, 24 h after administration, listed as FTY720-3): 363.44 | heart rate 24 h (SD rat heart rate; Table 2, intragastric, 24 h after administration, listed as average of FTY720): 352.72 | heart rate pre-administration (SD rat heart rate; Table 2, intragastric, listed as FTY720-1): 396.28 | heart rate pre-administration (SD rat heart rate; Table 2, intragastric, listed as FTY720-2): 398.60 | heart rate pre-administration (SD rat heart rate; Table 2, intragastric, listed as FTY720-3): 398.22 | heart rate pre-administration (SD rat heart rate; Table 2, intragastric, listed as average of FTY720): 397.70 | Δ % = the percentage of change of rat heart rate before and after administration (SD rat heart rate; Table 4): 26.16% | heart rate 0.5 h (SD rat heart rate; Table 4, intragastric, 0.5 h): 356.33 | heart rate 1 h (SD rat heart rate; Table 4, intragastric, 1 h): 319.22 | heart rate 3 h (SD rat heart rate; Table 4, intragastric, 3 h): 288.58 | heart rate 6 h (SD rat heart rate; Table 4, intragastric, 6 h): 280.13 | heart rate 8 h (SD rat heart rate; Table 4, intragastric, 8 h): 308.08 | heart rate 24 h (SD rat heart rate; Table 4, intragastric, 24 h): 323.25 | heart rate 0 (SD rat heart rate; Table 4, intragastric, time 0, before administration): 379.42 | HR delta % (SD rat heart rate; Table 6, listed as FTY720-1): 21.86% | HR delta % (SD rat heart rate; Table 6, listed as FTY720-2): 22.61% | heart rate 1 h (SD rat heart rate; Table 6, intragastric, 1 h, listed as FTY720-1): 389.62 ± 30.01 | heart rate 1 h (SD rat heart rate; Table 6, intragastric, 1 h, listed as FTY720-2): 389.62 ± 23.39 | heart rate 4 h (SD rat heart rate; [2]): 340.17 ± 32.04 | heart rate 4 h (SD rat heart rate; [3]): 354.27 ± 15.79 | heart rate 8 h (SD rat heart rate; Table 6, intragastric, 8 h, listed as FTY720-1): 361.69 ± 27.99 | heart rate 8 h (SD rat heart rate; Table 6, intragastric, 8 h, listed as FTY720-2): 346.91 ± 26.41 | heart rate 12 h (SD rat heart rate; [2]): 360.62 ± 18.19 | heart rate 12 h (SD rat heart rate; [3]): 335.67 ± 16.30 | heart rate 24 h (SD rat heart rate; Table 6, intragastric, 24 h, listed as FTY720-1): 410.31 ± 32.13 | heart rate 24 h (SD rat heart rate; Table 6, intragastric, 24 h, listed as FTY720-2): 370.18 ± 26.82 | heart rate pre-administration (SD rat heart rate; [2]): 435.36 ± 47.99 | heart rate pre-administration (SD rat heart rate; [3]): 433.75 ± 30.84 | HR delta % (SD rat heart rate; Table 9): 17.80% | heart rate 0.5 h (SD rat heart rate; Table 9, intragastric, 0.5 h): 361.28 ± 22.91 | heart rate 1 h (SD rat heart rate; Table 9, intragastric, 1 h): 331.71 ± 12.26 | heart rate 3 h (SD rat heart rate; Table 9, intragastric, 3 h): 329.33 ± 11.32 | heart rate 6 h (SD rat heart rate; Table 9, intragastric, 6 h): 327.82 ± 15.60 | heart rate 8 h (SD rat heart rate; Table 9, intragastric, 8 h): 338.78 ± 12.07 | heart rate 24 h (SD rat heart rate; Table 9, intragastric, 24 h): 365.07 ± 19.47 | heart rate pre-administration (SD rat heart rate; Table 9, intragastric): 398.60 ± 33.20
